From patent US5985844A, “Homoerythromycin A derivatives modified at the 4"-and 8A-positions” (Merck & Co., Inc., priority 1992, dated 1999) come the findings set out here.

Holding throughout (assay): liquid turbidimetric microtiter MIC, broth media
What all share (type): cell-based

Experiment [1] has as its system Streptococcus pyogenes MB 2874. From the text:
(§1) The antibacterial activities of the compounds of Examples 8 and 10 against a panel of aerobic Gram positive and negative bacteria is shown in Table I. Similarly, the antibacterial activities of the compounds of Examples 89, 94, 96, and 97 are presented in Table II. The assay employs a liquid turbidimetric microtiter method for the determination of the minimum inhibitory concentration (MIC) in broth media. […] The MIC is generally not an absolute value but rather a concentration range that falls within a two-fold dilution limit. Generally twelve two-fold dilutions of the test compound are employed with the initial concentration set at 128 mcg/ml.

Experiment [2] has as its system Staphylococcus epidermidis MB 5414.
Source text: as §1

For experiment [3], the system named is Klebsiella pneumoniae MB 4005.
Source text: as §1

Experiment [4] deals with Streptococcus pyogenes MB 54061. The settings on record: MB54061.
Source text: as §1

Experiment [5] relates to Enterococcus faecium MB 5416. The settings on record: MB5416.
Source text: as §1

A further experiment concerns Escherichia coli MB 2884.
Source text: as §1

For experiment [6], the system named is Enterococcus faecalis MB 5407.
Source text: as §1

In experiment [7] the test system is Staphylococcus haemolyticus MB 5412. To be noted: MB5412.
Source text: as §1

Experiment [8] relates to Streptococcus agalactiae CL 1343. To be noted: CL1343.
Source text: as §1

The subject of experiment [9] is Pseudomonas stutzeri MB 1231. To be noted: Stutzerimonas stutzeri, MB1231.
Source text: as §1

For another experiment, the system named is Escherichia coli MB 4926. The settings on record: MB4926.
Source text: as §1

Experiment [10] relates to Streptococcus pneumoniae CL 2883.
Source text: as §1

Experiment [11] deals with Staphylococcus aureus MB 2865.
Source text: as §1

The test system of experiment [12] is Streptococcus viridans CL 2943. To be noted: CL2943.
Source text: as §1

Experiment [13] relates to Haemophilus influenzae AT 43163.
Source text: as §1

In experiment [14] the test system is Haemophilus influenzae MB 5363.
Source text: as §1

In experiment [15] the test system is Enterobacter cloacae CL 4298.
Source text: as §1

≈ marks a conversion by molar mass, not a printed value. Where two headings read alike, the source gives them in different places.

Consider `CC[C@H]1OC(=O)[C@H](C)[C@@H](O[C@H]2C[C@@](C)(OC)[C@@H](O)[C@H](C)O2)[C@H](C)[C@@H](O[C@@H]2O[C@H](C)C[C@H](N(C)C)[C@H]2O)[C@](C)(O)C[C@@H](C)N(C)C[C@H](C)[C@@H](O)[C@]1(C)O` [Example 10, 9-Deoxo-8a-aza-8a-methyl-8a-homoerythromycin A], for which the MIC in [1] (MB2874, read-out: MIC) was at most 0.06 µg/mL; in [2] (MB5414, read-out: MIC) it was 1 µg/mL (≈ 1.34 µM); in [3] (MB4005, read-out: MIC) it was 2 µg/mL (≈ 2.67 µM); in experiment [4], 128 µg/mL (≈ 171 µM); in experiment [5], 0.25 µg/mL (≈ 0.334 µM); in the experiment on Escherichia coli MB 2884 (MB2884, read-out: MIC) it was 1 µg/mL (≈ 1.34 µM). For the same molecule, the MIC in experiment [6] (MB5407, read-out: MIC) is 4 µg/mL (≈ 5.34 µM); in experiment [7], 0.5 µg/mL (≈ 0.668 µM); in [8], at most 0.06 µg/mL; in experiment [9], at most 0.06 µg/mL; against Escherichia coli MB 4926 it was 0.06 µg/mL (≈ 0.0801 µM); in [10] (CL2883, read-out: MIC) it was at most 0.06 µg/mL. The MIC turned out to be 0.5 µg/mL (≈ 0.668 µM) in [11] (MB2865, read-out: MIC) and 1 µg/mL (≈ 1.34 µM) in experiment [12].
In the case of `CC[C@H]1OC(=O)[C@H](C)[C@@H](O[C@H]2C[C@@](C)(OC)[C@@H](O)[C@H](C)O2)[C@H](C)[C@@H](O[C@@H]2O[C@H](C)C[C@H](N(C)C)[C@H]2O)[C@](C)(O)C[C@@H](C)C(=O)[C@H](C)[C@@H](O)[C@]1(C)O` [Erythromycin A, erythromycin A], the MIC was at most 0.06 µg/mL in experiment [1]; 0.12 µg/mL (≈ 0.164 µM) in [2]; 2 µg/mL (≈ 2.73 µM) in [13]; 32 µg/mL (≈ 43.6 µM) in experiment [3]; 16 µg/mL (≈ 21.8 µM) with Escherichia coli MB 2884 (MB2884, read-out: MIC); 1 µg/mL (≈ 1.36 µM) in experiment [6]. For the same molecule, the MIC in experiment [14] was 2 µg/mL (≈ 2.73 µM); in experiment [10] it was at most 0.06 µg/mL; in experiment [15] it was 16 µg/mL (≈ 21.8 µM); in experiment [11] it was 0.12 µg/mL (≈ 0.164 µM).
For the molecule `CC[C@H]1OC(=O)[C@H](C)[C@@H](O[C@H]2C[C@@](C)(OC)[C@H](N)[C@H](C)O2)[C@H](C)[C@@H](O[C@@H]2O[C@H](C)C[C@H](N(C)C)[C@H]2O)[C@](C)(O)C[C@@H](C)N(C)C[C@H](C)[C@@H](O)[C@]1(C)O` [Example 97, 4"-Deoxy-4"-(R)-amino-9-deoxo-8a-aza-8a-methyl-8a-homoerythromycin A], the MIC is at most 0.06 µg/mL in [1]; 0.5 µg/mL (≈ 0.668 µM) in [2]; 0.25 µg/mL (≈ 0.334 µM) in [13]; 0.25 µg/mL (≈ 0.334 µM) in [3]; 0.25 µg/mL (≈ 0.334 µM) against Escherichia coli MB 2884; 2 µg/mL (≈ 2.67 µM) in experiment [6]. For the same molecule, the MIC in experiment [14] was 0.5 µg/mL (≈ 0.668 µM); in [10], at most 0.06 µg/mL; in [15] it was 0.12 µg/mL (≈ 0.16 µM); in experiment [11], 1 µg/mL (≈ 1.34 µM).
With `CC[C@H]1OC(=O)[C@H](C)[C@@H](O[C@H]2C[C@@](C)(OC)[C@@H](O)[C@H](C)O2)[C@H](C)[C@@H](O[C@@H]2O[C@H](C)C[C@H](N(C)C)[C@H]2O)[C@](C)(O)C[C@@H](C)NC[C@H](C)[C@@H](O)[C@]1(C)O` [Example 8, 9-Deoxo-8a-aza-8a-homoerythromycin A], the MIC in experiment [1] (MB2874, read-out: MIC) was at most 0.06 µg/mL; in experiment [2] (MB5414, read-out: MIC) it was 1 µg/mL (≈ 1.36 µM); in [3] (MB4005, read-out: MIC), 8 µg/mL (≈ 10.9 µM); in [4], 128 µg/mL (≈ 174 µM); in experiment [5] it was 0.25 µg/mL (≈ 0.34 µM); in the experiment on Escherichia coli MB 2884 (MB2884, read-out: MIC), 4 µg/mL (≈ 5.44 µM). The MIC in experiment [6] (MB5407, read-out: MIC) was 8 µg/mL (≈ 10.9 µM); in experiment [7], 0.5 µg/mL (≈ 0.68 µM); in [8], at most 0.06 µg/mL; in experiment [9] it was at most 0.06 µg/mL; in the experiment on Escherichia coli MB 4926 it was 2 µg/mL (≈ 2.72 µM); in experiment [10] (CL2883, read-out: MIC), at most 0.06 µg/mL. Moreover, the MIC in [11] (MB2865, read-out: MIC) came out at 0.5 µg/mL (≈ 0.68 µM); in [12], 8 µg/mL (≈ 10.9 µM).
In the case of `CC[C@H]1OC(=O)[C@H](C)[C@@H](O[C@H]2C[C@@](C)(OC)[C@@H](N)[C@H](C)O2)[C@H](C)[C@@H](O[C@@H]2O[C@H](C)C[C@H](N(C)C)[C@H]2O)[C@](C)(O)C[C@@H](C)N(C)C[C@H](C)[C@@H](O)[C@]1(C)O` [Example 96, 4"-Deoxy-4"-(S)-amino-9-deoxo-8a-aza-8a-methyl-8a-homoerythromycin A], the MIC in experiment [1] was at most 0.06 µg/mL; in [2], 0.51 µg/mL (≈ 0.682 µM); in [13], 0.25 µg/mL (≈ 0.334 µM); in experiment [3], 0.12 µg/mL (≈ 0.16 µM); in the experiment with Escherichia coli MB 2884, 0.12 µg/mL (≈ 0.16 µM); in experiment [6], 2 µg/mL (≈ 2.67 µM). Also, the MIC in [14] was 0.25 µg/mL (≈ 0.334 µM); in [10], at most 0.06 µg/mL; in experiment [15], at most 0.06 µg/mL; in [11] it was 1 µg/mL (≈ 1.34 µM).
With `CC[C@H]1OC(=O)[C@H](C)[C@@H](O[C@H]2C[C@@](C)(OC)[C@H](O)[C@H](C)O2)[C@H](C)[C@@H](O[C@@H]2O[C@H](C)C[C@H](N(C)C)[C@H]2O)[C@](C)(O)C[C@@H](C)N(C)C[C@H](C)[C@@H](O)[C@]1(C)O` [Example 89, 4"-epi-9-deoxo-8a-aza-8a-methyl-8a-homoerythromycin A], the MIC is at most 0.06 µg/mL in [1] (MB2874, read-out: MIC); 0.25 µg/mL (≈ 0.334 µM) in experiment [2] (MB5414, read-out: MIC); 0.5 µg/mL (≈ 0.668 µM) in experiment [13] (AT43163, read-out: MIC); 1 µg/mL (≈ 1.34 µM) in experiment [3] (MB4005, read-out: MIC); 1 µg/mL (≈ 1.34 µM) in the experiment with Escherichia coli MB 2884 (MB2884, read-out: MIC); 1 µg/mL (≈ 1.34 µM) in experiment [6] (MB5407, read-out: MIC). Also, the MIC is 0.5 µg/mL (≈ 0.668 µM) in experiment [14] (MB5363, read-out: MIC); at most 0.06 µg/mL in experiment [10] (CL2883, read-out: MIC); 0.5 µg/mL (≈ 0.668 µM) in experiment [15] (CL4298, read-out: MIC); 0.5 µg/mL (≈ 0.668 µM) in [11] (MB2865, read-out: MIC).
As for “4"-Deoxy-4"-amino-9-deoxo-8a-aza-8a-methyl-8a-homoerythromycin A [Example 94]”, the MIC in [1] was at most 0.06 µg/mL; in experiment [2] it was 0.5 µg/mL; in experiment [13], 0.25 µg/mL; in experiment [3], 0.12 µg/mL; in the experiment on Escherichia coli MB 2884, 0.12 µg/mL; in [6], 4 µg/mL. For the same molecule, the MIC in [14] is 0.5 µg/mL; in [10], at most 0.06 µg/mL; in experiment [15], at most 0.06 µg/mL; in experiment [11], 1 µg/mL.
